{"source": "patent US20260183295A1", "about": "“METHODS AND COMPOSITIONS FOR TREATING CANCER” (Onconova Therapeutics, Inc., priority 2022, published 2026)", "key": {"[1]": {"test_system": "MDA-MB-231 cells", "assay": "CytoTox-Glo cytotoxicity assay with or without bafilomycin A1, 2 days", "assay_type": "cell-based", "conditions": "5 μM"}, "[2]": {"test_system": "PyMT cells", "assay": "Annexin V/PI staining, apoptotic cells, 48 hours", "assay_type": "cell-based, mouse", "conditions": "compared to Comparator 1 (5 μM) and Comparator 3 (1 μM)"}, "[3]": {"test_system": "Akt pSer473", "assay": "Western blot, MDA-MB-231 cells, 24 hours", "assay_type": "cell-based", "conditions": "2.5, 5, 10 μM, versus Comparator 1, 2 and 4"}, "[4]": {"test_system": "MDA-MB-231 cells", "assay": "Lysotracker Green staining, phase contrast microscopy", "assay_type": "cell-based", "conditions": "5 μM, 2 hours", "method": "MDA-MB-231 cells were treated with Compound 1 (5 μM) for 2 hours and stained with Lysotracker Green and imaged using phase contrast microscopy to examine the effect of Compound 1 treatment on vacuolization."}, "[5]": {"test_system": "BRAF", "assay": "Phosphoproteomic analysis, MDA-MB-231", "assay_type": "cell-based", "conditions": "5 μM, 2 hours, T-test p<0,05", "method": "Following treatment, a sample of each of the three treatments was analyzed by Western Blot for expression of phosphoprotein targets.\nIn addition to western blot analysis, the cell lysate samples underwent phosphoproteomic analysis."}, "[6]": {"test_system": "PyMT cells", "assay": "Growth and recovery, 6 days treatment and 4 days recovery, cell counts", "assay_type": "cell-based, mouse", "conditions": "6 days treatment, counted on days 0, 3, 6, 10", "text": "Following 6 days of treatment, the drug treatments were stopped and the cells allowed to recover for 4 days. Cell numbers were counted on days 0, 3, 6, and 10, and the results plotted."}, "[7]": {"biological_target": "T1, NanoLuc-CDK16 Fusion (Homo sapiens, UniProt Q00536)", "T1 construct": "expressed in transfected cells; host or cells: HEK293, transient", "T1 sequence (Q00536 whole entry, the tested form may be a part)": "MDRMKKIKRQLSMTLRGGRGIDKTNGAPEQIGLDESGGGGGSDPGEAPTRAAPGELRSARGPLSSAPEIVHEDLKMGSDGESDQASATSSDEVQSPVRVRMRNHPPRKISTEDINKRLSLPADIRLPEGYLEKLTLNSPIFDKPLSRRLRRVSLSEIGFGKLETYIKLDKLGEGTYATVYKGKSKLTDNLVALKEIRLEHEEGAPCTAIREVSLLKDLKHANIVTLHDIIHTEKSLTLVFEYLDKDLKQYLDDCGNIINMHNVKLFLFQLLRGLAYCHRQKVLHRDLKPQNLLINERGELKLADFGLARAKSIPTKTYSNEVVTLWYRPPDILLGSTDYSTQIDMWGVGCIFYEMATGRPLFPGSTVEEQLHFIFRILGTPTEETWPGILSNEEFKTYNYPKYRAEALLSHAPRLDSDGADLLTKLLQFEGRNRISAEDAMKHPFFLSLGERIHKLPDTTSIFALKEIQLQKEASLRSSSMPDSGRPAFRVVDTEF", "T1 sequence (Q8ND76 whole entry partner, the tested form may be a part)": "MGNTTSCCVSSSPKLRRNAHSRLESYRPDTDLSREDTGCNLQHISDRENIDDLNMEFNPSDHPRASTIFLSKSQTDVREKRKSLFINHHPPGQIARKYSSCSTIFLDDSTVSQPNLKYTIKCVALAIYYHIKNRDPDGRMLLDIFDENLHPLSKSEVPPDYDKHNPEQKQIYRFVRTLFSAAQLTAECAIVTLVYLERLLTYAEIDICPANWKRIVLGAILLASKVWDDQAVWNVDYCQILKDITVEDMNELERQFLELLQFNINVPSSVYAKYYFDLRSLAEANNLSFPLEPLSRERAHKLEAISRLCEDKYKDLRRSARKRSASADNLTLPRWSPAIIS", "assay": "Cellular NanoBRET assay in HEK293 cells, raw data ratio", "assay_type": "cell-based", "method": "HEK293 cells were transfected with 1 ug of NanoLuc-CDK16 Fusion vector and 9 ug of either carrier DNA or cyclin Y DAN. The HEK293 cells transiently expressing the vectors were then seeded into the wells of 384-well plates. The cells were pre-treated with the NanoBRET Tracer K-10 (0.5 uM) and then treated with 3-fold serial dilutions (10 uM-0.5 nM), of Compound 1 or the reference compound APY-69 for 1 hour. The BRET signal was measured on an Envision2104 Multilabel Reader. IC50 value was calculated and IC50 curve was plotted using the GraphPad Prism 4 program based on a sigmoidal dose response equation."}, "[8]": {"test_system": "MDA-MB-231 cells", "assay": "Annexin V/PI staining with or without bafilomycin A1, 2 days", "assay_type": "cell-based", "conditions": "5 μM", "text": "The effect was increased with bafilomycin A1 cotreatment."}, "[9]": {"test_system": "MDA-MB-231 cells", "assay": "Wound healing assay (24 Hour Migration Assay)", "assay_type": "cell-based", "conditions": "MDA-MB-231, 1.0 μM and 10.0 μM", "method": "(§1) A cell-free area was created in a confluent monolayer by physical exclusion or by removing the cells from the area through mechanical, thermal or chemical damage. The exposure to the cell-free area induced the cells to migrate into the gap. The rate of gap closure was measured and plotted."}, "[10]": {"test_system": "Hs578t cells", "assay": "Wound healing assay (24 Hour Migration Assay)", "assay_type": "cell-based", "conditions": "1.0 μM and 10.0 μM", "method": "as §1"}, "[11]": {"test_system": "HCC-1937", "assay": "Cell viability after 72 hours treatment", "assay_type": "cell-based", "conditions": "HCC-1937 (TNBC)", "method": "(§2) The effects on the different treatment conditions on BUB 1 levels and PARP cleavage were also assessed. For both MNA-MB-231 cells, Compound 1 alone or with HCQ or SBI decreased BUB1 levels and cleaved PARP with […] decreases in cell viability observed for all treatments except Compound 1+SBI in MMA-MB-231 cells. The effects of Compound 1 with or without autophagy inhibitors was less pronounced in HCC-1937 cells."}, "[12]": {"test_system": "MDA-MB-468", "assay": "Cell viability after 72 hours treatment", "assay_type": "cell-based", "conditions": "MDA-MB-468 (TNBC)", "method": "as §2"}, "[13]": {"test_system": "MDA-MB-231", "assay": "Cell viability after 72 hours treatment", "assay_type": "cell-based", "conditions": "MDA-MB-231 (TNBC)", "method": "as §2"}, "[14]": {"test_system": "Hs578T spheroids", "assay": "CellTiter Glo 3D spheroid viability", "assay_type": "cell-based", "conditions": "48 hours; Compound 1, Comparator 1, Comparator 2 5 μM; Comparator 4 10 μM", "method": "Viability of the spheroids was assessed using CellTiter Glo 3D."}, "[15]": {"biological_target": "T2, NUAK1 (Homo sapiens, UniProt O60285)", "T2 sequence (O60285 1-661)": "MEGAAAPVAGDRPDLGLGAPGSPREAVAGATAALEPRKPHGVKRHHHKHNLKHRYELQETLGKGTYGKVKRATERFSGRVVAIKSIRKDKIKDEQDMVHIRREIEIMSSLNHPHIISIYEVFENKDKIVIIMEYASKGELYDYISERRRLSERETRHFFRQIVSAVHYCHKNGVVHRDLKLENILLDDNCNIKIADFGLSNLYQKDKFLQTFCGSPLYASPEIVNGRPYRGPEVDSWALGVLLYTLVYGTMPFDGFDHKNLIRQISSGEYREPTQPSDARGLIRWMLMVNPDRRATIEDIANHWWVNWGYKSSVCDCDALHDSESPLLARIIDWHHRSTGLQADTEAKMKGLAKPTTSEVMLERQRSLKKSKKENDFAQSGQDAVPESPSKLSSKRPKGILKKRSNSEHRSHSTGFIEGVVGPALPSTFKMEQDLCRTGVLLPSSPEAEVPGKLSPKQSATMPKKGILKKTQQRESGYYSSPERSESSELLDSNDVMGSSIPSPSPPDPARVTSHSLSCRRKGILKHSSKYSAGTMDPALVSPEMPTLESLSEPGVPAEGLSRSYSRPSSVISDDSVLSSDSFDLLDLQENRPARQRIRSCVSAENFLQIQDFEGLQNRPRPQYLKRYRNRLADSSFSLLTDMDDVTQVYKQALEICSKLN", "assay": "NUAK1 NanoBret", "assay_type": "cell-based"}, "[16]": {"test_system": "MDA-MB-231 cells", "assay": "Annexin V/PI staining followed by FACS, 24 hours", "assay_type": "cell-based", "method": "To determine the effect of the different treatment conditions on cell death, Annexin V/PI staining was performed."}}, "data": [{"smiles": "CN1CCN(c2ccc(Nc3ncc4cc(C#N)c(=O)n(C5CCCC5)c4n3)cc2)CC1", "note": "[Compound 1, 8-cyclopentyl-2-((4-(4-methylpiperazin-1-yl)phenyl)amino)-7-oxo-7,8-dihydropyrido[2,3-d]pyrimidine-6-carbonitrile]", "values": [{"measurement": "cell death (Cell Tox Glo), compound alone", "setting": "[1]", "value": "induced cell death"}, {"measurement": "effect of bafilomycin A1 cotreatment on cell death (Cell Tox Glo)", "setting": "[1]", "value": "enhanced"}, {"measurement": "number of apoptotic cells (Annexin V/PI)", "setting": "[2]", "value": "increased numbers of apoptotic cells"}, {"measurement": "Akt pSer473 levels", "setting": "[3]", "value": "decreasing"}, {"measurement": "vacuolization, Lysotracker Green staining", "setting": "[4]", "value": "extensive cytoplasmic vacuolization that colocalized with Lysotracker green staining"}, {"measurement": "Significance (phosphopeptide target)", "setting": "[5]", "value": "significant"}, {"measurement": "PyMT cell numbers, treatment and recovery phase", "setting": "[6]", "value": "small decrease in cell number at day 3 that then increased throughout the rest of the experiment"}, {"measurement": "raw data ratio 600 nm/460 nm, Data 1", "setting": "[7]; Conc. 0.0005 μM", "value": 0.07557}, {"measurement": "raw data ratio 600 nm/460 nm, Data 2", "setting": "[7]; Conc. 0.0005 μM", "value": 0.0761}, {"measurement": "raw data ratio 600 nm/460 nm, Data 1", "setting": "[7]; Conc. 0.0015 μM", "value": 0.06908}, {"measurement": "raw data ratio 600 nm/460 nm, Data 2", "setting": "[7]; Conc. 0.0015 μM", "value": 0.06919}, {"measurement": "raw data ratio 600 nm/460 nm, Data 1", "setting": "[7]; Conc. 0.0046 μM", "value": 0.05883}, {"measurement": "raw data ratio 600 nm/460 nm, Data 2", "setting": "[7]; Conc. 0.0046 μM", "value": 0.05984}, {"measurement": "raw data ratio 600 nm/460 nm, Data 1", "setting": "[7]; Conc. 0.0137 μM", "value": 0.04626}, {"measurement": "raw data ratio 600 nm/460 nm, Data 2", "setting": "[7]; Conc. 0.0137 μM", "value": 0.04683}, {"measurement": "raw data ratio 600 nm/460 nm, Data 1", "setting": "[7]; Conc. 0.0412 μM", "value": 0.04036}, {"measurement": "raw data ratio 600 nm/460 nm, Data 2", "setting": "[7]; Conc. 0.0412 μM", "value": 0.04048}, {"measurement": "raw data ratio 600 nm/460 nm, Data 1", "setting": "[7]; Conc. 0.1235 μM", "value": 0.02963}, {"measurement": "raw data ratio 600 nm/460 nm, Data 2", "setting": "[7]; Conc. 0.1235 μM", "value": 0.03005}, {"measurement": "raw data ratio 600 nm/460 nm, Data 1", "setting": "[7]; Conc. 0.3704 μM", "value": 0.02837}, {"measurement": "raw data ratio 600 nm/460 nm, Data 2", "setting": "[7]; Conc. 0.3704 μM", "value": 0.02942}, {"measurement": "raw data ratio 600 nm/460 nm, Data 1", "setting": "[7]; Conc. 1.1111 μM", "value": 0.02836}, {"measurement": "raw data ratio 600 nm/460 nm, Data 2", "setting": "[7]; Conc. 1.1111 μM", "value": 0.02899}, {"measurement": "raw data ratio 600 nm/460 nm, Data 1", "setting": "[7]; Conc. 3.3333 μM", "value": 0.02996}, {"measurement": "raw data ratio 600 nm/460 nm, Data 2", "setting": "[7]; Conc. 3.3333 μM", "value": 0.02908}, {"measurement": "raw data ratio 600 nm/460 nm, Data 1", "setting": "[7]; Conc. 10.0000 μM", "value": 0.02733}, {"measurement": "raw data ratio 600 nm/460 nm, Data 2", "setting": "[7]; Conc. 10.0000 μM", "value": 0.02831}, {"measurement": "cell death (Annexin V/PI), compound alone", "setting": "[8]", "value": "induced cell death"}, {"measurement": "effect of bafilomycin A1 cotreatment on cell death (Annexin V/PI)", "setting": "[8]", "value": "increased"}, {"measurement": "cell migration (rate of gap closure)", "setting": "[9]", "value": "inhibited cell migration significantly more than Comparator 1"}, {"measurement": "cell migration (rate of gap closure)", "setting": "[10]", "value": "inhibited cell migration significantly more than Comparator 1"}, {"measurement": "72 h-cell viability decrease", "setting": "[11]", "value": 25, "unit": "%"}, {"measurement": "72 h-cell viability decrease", "setting": "[12]", "value": 80, "unit": "%"}, {"measurement": "72 h-cell viability decrease", "setting": "[13]", "value": 75, "unit": "%"}, {"measurement": "decrease in organoid viability compared to DMSO", "setting": "[14]", "value": "~40", "unit": "%"}, {"measurement": "IC50", "setting": "[15]", "value": 42, "unit": "nM"}, {"measurement": "cell death (Annexin V/PI)", "setting": "[16]; Compound 1, Comparator 1, 2 5 μM, Comparator 4 10 μM", "value": "~40", "unit": "%"}, {"measurement": "effect of zVAD-FMK on cell death, Annexin V/PI staining", "setting": "[16]; zVAD-FMK 20 μM (FIG. 24)", "value": "unaffected by zVAD-FMK treatment"}]}]}
